How the values were obtained:
[1] = tested on: Caco-2 cell monolayer; assay: in vitro; type: in vitro ADME; conditions: human, Caco-2, 90 min
In short: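 Caco-2 monolayers cultured 19 days on inserts (TEER >600 […]); bidirectional A-to-B and B-to-A transport at 37° C over 90 min, samples quantified by LC/MS/MS. Papp, efflux ratio and recovery calculated; ER >2 flags potential efflux substrates.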

[2] = cited from earlier work
[3] = rats; cited from earlier work

N#C[C@@]1(c2ccc3c(NC(=O)[C@@H](N)Cc4ccc(F)cc4)ncnn23)O[C@H](CO)[C@@H](O)[C@H]1O [Compound 84, (S)-2-amino-N-(7-((2R,3R,4S,5R)-2-cyano-3,4-dihydroxy-5-(hydroxymethyl)tetrahydrofuran-2-yl)pyrrolo[2,1-f][1,2,4]triazin-4-yl)-3-(4-fluorophenyl)propenamide]
Papp, A-B [1]: 0 ×10⁻⁶ cm/s
Papp, B-A [1]: 0 ×10⁻⁶ cm/s

N#C[C@@]1(c2ccc3c(N)ncnn23)O[C@H](CO)[C@@H](O)[C@H]1O [GS-441524]
T½ in plasma ([2]; plasma, following IV administration): about 24.5 hr
% F (oral bioavailability) [3]: 4.8%

CCC(CC)COC(=O)[C@H](C)N[P@](=O)(OC[C@H]1O[C@@](C#N)(c2ccc3c(N)ncnn23)[C@H](O)[C@@H]1O)Oc1ccccc1 [remdesivir, Remdesivir]
T1/2 (hydrolysis by esterases) ([2]; in vivo, iv): about 1 hr
